According to US8617563B2, “Antichlamydial agents” (Duke University, priority 2011, dated 2013):
Where no end group is shown, it is not given here.

Columns and labels:
CPAF = CPAF (Chlamydia trachomatis serovar D, UniProt O84866); format: biochemical, C. trachomatis; set-up: 6xHis; made in house; host or cells: E. coli (pET30b); details: GST-chlamydial substrates in presence of peptides
Experimental: FIG. 4 depicts (A) Recombinant Chlamydia ORFs were tested for sensitivity to host and bacterial derived proteases. […] Purified his-tagged CPAF was incubated with GST-tagged chlamydial substrates at 37° C. for 20 min with increasing amounts of lactacystin. Cleavage products were run on an SDS PAGE gel and visualized with Coomassie blue staining. (C) Schematic summary of CPAF targets. […] Membranes from Chlamydia-infected HeLa cells were harvested and purified at 0, 24, 36 and 48 hours post-infection, and the abundance of the chlamydial proteins Ct005, IncC and IncD were monitored with specific antibodies. Na/K ATPase and IncG served as host and bacterial-loading controls, respectively.
Cytosols from Chlamydia-infected HeLa cells (40 hrs) or recombinant his-tagged CPAF were pre-treated with rabbit polyclonal anti-CPAF or anti-IncA antisera, and incubated with GST-tagged Chlamydia proteins for 20 min at 37° C. […] Three example proteins shown include a type-III secretion (T3S) core component (CdsQ) a T3S chaperone (Mcsc) and a T3S needle component (Ct584). Processing of recombinant proteins in A-B were monitored by immunoblot analysis with specific antibodies. (C) Protease inhibitor profile of recombinant CPAF. Example shown for the chlamydial substrate GST-IncC. Degradation products were visualized by SDS-PAGE followed by staining with Coomassie blue. […]
Uninfected and HeLa cells pre-infected with L2 for 30 hrs were treated with inhibitory peptides and infected with EBs for 10 min Tarp translocation was indirectly visualized with an anti-phosphotyrosine antibody (A) and quantified by counting 50 separate cells (B). The stability of newly translocated Tarp was assessed by infecting cells as in (A) but with S^35-labeled EBs, followed by sequential immunoprecipitation of Tarp and MOMP and Phosphoimager analysis of precipitated material (C (I-IV)). […] IC50 values were determined by assessing CPAF cleavage of an Abz-tagged CPAF substrate (SEQ ID NO:9) by HPLC. […] Extracellular bacteria were determined. […] The number of internalized EBs was quantified per cell (H). […]

[1] = system: HeLa cells pre-infected with L2; assay: Secondary EB infection of pre-infected HeLa cells (Tarp translocation, stability, EB entry); format: cell-based, C. trachomatis
Experimental: FIG. 8 depicts (A-C(I-IV)) Tarp translocated by EBs is a target of CPAF-mediated degradation. Uninfected and HeLa cells pre-infected with L2 for 30 hrs were treated with inhibitory peptides and infected with EBs for 10 min Tarp translocation was indirectly visualized with an anti-phosphotyrosine antibody (A) and quantified by counting 50 separate cells (B). The stability of newly translocated Tarp was assessed by infecting cells as in (A) but with S^35-labeled EBs, followed by sequential immunoprecipitation of Tarp and MOMP and Phosphoimager analysis of precipitated material (C (I-IV)). Tarp is degraded in pre-infected HeLa cells in a CPAF-dependent manner. (D) Effective inhibition of CPAF activity by inhibitory peptide. IC50 values were determined by assessing CPAF cleavage of an Abz-tagged CPAF substrate (SEQ ID NO:9) by HPLC. Assays were performed the presence of increasing amount of inhibitors. […] CPAF cleavage of GST-chlamydial substrates was performed as in FIG. 4B but in the presence of SEQ ID NO:7 and SEQ ID NO:11 peptides (E). For in vivo inhibition effects on Chlamydia (L2), infected HeLa cells were treated with peptides at 12 hpi, and harvested at 30 hpi (F). […] (G and H) CPAF restricts EB entry into preinfected cells. Cells were infected as in (A), except that the secondary infections (30 min) were performed with fluorescently labeled EBs and infected cells were not permeabilized. […] Extracellular bacteria were determined. […] The number of internalized EBs was quantified per cell (H). […]
Next, HeLa cells or inclusion-containing HeLa cells were infected with ^35S-radiolabeled EBs, followed by immunoprecipitation of Tarp at various times after infection to determine the stability of translocated Tarp under these conditions. […] Tarp and MOMP were immunoprecipitated using anti-Tarp and anti-MOMP protein A sepharose beads (available from GE Healthcare), detected in a Typhoon9410 Variable Image Phosphor Imager (available from Amersham Biosciences), and quantified using ImageQuant 5.1TL software (available from GE Healthcare). […]

Sequence of CPAF (O84866 1-234, added parts left off): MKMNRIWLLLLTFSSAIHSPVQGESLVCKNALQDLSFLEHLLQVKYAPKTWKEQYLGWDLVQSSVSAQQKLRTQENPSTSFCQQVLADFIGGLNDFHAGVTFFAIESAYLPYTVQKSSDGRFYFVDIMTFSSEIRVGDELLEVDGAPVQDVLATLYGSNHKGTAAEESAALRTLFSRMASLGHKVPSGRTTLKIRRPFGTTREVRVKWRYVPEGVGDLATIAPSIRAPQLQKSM
Sequence of CPAF (O84866 276-601): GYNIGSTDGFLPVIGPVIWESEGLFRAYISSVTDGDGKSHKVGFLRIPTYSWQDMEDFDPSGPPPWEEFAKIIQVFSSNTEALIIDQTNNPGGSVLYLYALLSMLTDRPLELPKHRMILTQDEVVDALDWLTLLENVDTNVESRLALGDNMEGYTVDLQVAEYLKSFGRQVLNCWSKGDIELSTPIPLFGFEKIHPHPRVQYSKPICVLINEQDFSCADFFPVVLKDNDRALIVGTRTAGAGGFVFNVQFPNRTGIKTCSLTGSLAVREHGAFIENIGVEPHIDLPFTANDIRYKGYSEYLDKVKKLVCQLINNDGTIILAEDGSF

Substance: SLFYSPMVPHFWAELRNHYATSGLKRRRRRRRRR-NH2 [SEQ ID NO:7]
- Inhibition of degradation of CPAF substrates in vitro (CPAF): broadly inhibited degradation of CPAF substrates
- Accumulation of Tyr-phosphorylated proteins at EB attachment sites ([1]; pre-infected HeLa cells (30 h), 12 μM peptide): restored the accumulation
- Degradation of Tarp in pulse-chase experiments ([1]; pre-infected HeLa cells, 35S-labeled EBs, 12 μM peptide): blocked the degradation of Tarp
- EB entry into preinfected cells ([1]; secondary infection 30 min, labeled EBs): increased EB entry
